The source of these data is ChEMBL document CHEMBL1201862, “PubChem BioAssay data set” (2004).

A short description of assay [1]: NIH-3T3 fibroblast cytotoxicity, dose response, cytotoxicity control, cell-based, fluorescence, Alamar Blue, secondary assay (AID 2327).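 Also: NIH-3T3 mouse fibroblasts cultured with fluconazole at 8 µg/mL.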 In kind it is functional. On the technique in general: Resazurin is reduced to fluorescent resorufin, in cell work by metabolically active cells.
Assay [2] deals with T1, Serine/threonine-protein phosphatase (Candida dubliniensis (strain CD36 / CBS 7987 / NCPF 3949 / NRRLY-17841) (Yeast), UniProt B9W6M3).
T1 sequence (B9W6M3 whole entry): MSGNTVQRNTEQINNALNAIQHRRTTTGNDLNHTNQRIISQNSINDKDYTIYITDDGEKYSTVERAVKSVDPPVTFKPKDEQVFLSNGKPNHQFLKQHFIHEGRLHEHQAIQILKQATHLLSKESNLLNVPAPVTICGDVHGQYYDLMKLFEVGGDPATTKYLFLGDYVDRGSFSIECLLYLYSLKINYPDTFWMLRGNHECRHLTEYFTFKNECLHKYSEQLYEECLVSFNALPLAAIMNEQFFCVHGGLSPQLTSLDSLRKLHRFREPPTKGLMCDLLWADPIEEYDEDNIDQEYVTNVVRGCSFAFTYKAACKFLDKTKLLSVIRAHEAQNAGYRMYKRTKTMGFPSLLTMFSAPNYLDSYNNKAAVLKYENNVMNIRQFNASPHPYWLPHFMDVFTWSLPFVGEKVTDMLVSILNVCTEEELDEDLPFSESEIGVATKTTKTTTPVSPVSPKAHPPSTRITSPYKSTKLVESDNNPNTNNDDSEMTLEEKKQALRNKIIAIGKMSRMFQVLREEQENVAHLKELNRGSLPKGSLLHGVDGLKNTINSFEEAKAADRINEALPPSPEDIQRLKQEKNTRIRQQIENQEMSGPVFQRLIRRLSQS
Briefly: calcineurin pathway inhibitors in yeast reporter, dose response, S. cerevisiae, CDRE-lacZ, luminescence, secondary (AID 2388).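 Also: yeast reporter cells carrying a calcineurin-responsive lacZ construct stimulated with calcium chloride; luminescent beta-galactosidase reporter signal in whole cells rather than isolated phosphatase activity; potency for inhibition where a drop in reporter signal means calcineurin blockade.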 In kind it is functional, cell-based.

For assay [3], the target named is ATP-dependent molecular chaperone HSP82 (Candida albicans (strain WO-1) (Yeast), UniProt C4YTQ8). Briefly: loss of DOC-induced GRE-beta-galactosidase reporter signal, dose response, Hsp90 inhibitor project, S. cerevisiae, luminescence (AID 2400).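 Also: beta-galactosidase luminescence from glucocorticoid response element reporter as proxy for Hsp90 function; inhibitor potency where signal loss means Hsp90 inhibition.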 In kind it is functional, cell-based.
ATP-dependent molecular chaperone HSP82, sequence (C4YTQ8 whole entry): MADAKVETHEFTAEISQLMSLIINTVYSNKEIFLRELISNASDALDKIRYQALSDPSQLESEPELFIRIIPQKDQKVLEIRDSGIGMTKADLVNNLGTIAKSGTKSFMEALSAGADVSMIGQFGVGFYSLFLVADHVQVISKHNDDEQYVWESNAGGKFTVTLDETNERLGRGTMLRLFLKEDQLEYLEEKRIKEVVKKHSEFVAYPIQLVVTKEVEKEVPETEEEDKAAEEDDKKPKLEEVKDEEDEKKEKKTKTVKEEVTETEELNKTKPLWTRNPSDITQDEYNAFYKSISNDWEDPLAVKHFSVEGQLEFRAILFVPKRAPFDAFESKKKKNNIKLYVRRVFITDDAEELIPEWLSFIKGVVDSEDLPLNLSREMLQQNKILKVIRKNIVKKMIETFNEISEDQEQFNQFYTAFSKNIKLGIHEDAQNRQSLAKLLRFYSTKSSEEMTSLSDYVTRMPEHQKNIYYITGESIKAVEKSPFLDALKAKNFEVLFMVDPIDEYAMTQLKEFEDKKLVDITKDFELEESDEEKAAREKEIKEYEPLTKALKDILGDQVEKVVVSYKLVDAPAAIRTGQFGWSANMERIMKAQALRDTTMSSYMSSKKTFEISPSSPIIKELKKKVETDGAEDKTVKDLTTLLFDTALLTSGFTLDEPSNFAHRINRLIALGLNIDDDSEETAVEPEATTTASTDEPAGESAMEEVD
Assay [4] in a line: microbe, parasite or virus in culture. In kind it is functional. The following applies: Mycobacterium tuberculosis.
Assay [5] can be described thus: C. albicans growth with fluconazole, confirmation, fluorescence, retest (AID 2467). Format: functional, cell-based.
Assay [6] has as its target T2, Sentrin-specific protease 6 (Homo sapiens, UniProt Q9GZR1).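 Also: Luminescence-based dose-response confirmatory assay of SENP6 inhibition, following up an ultra-high-throughput screen.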
T2 sequence (Q9GZR1 whole entry): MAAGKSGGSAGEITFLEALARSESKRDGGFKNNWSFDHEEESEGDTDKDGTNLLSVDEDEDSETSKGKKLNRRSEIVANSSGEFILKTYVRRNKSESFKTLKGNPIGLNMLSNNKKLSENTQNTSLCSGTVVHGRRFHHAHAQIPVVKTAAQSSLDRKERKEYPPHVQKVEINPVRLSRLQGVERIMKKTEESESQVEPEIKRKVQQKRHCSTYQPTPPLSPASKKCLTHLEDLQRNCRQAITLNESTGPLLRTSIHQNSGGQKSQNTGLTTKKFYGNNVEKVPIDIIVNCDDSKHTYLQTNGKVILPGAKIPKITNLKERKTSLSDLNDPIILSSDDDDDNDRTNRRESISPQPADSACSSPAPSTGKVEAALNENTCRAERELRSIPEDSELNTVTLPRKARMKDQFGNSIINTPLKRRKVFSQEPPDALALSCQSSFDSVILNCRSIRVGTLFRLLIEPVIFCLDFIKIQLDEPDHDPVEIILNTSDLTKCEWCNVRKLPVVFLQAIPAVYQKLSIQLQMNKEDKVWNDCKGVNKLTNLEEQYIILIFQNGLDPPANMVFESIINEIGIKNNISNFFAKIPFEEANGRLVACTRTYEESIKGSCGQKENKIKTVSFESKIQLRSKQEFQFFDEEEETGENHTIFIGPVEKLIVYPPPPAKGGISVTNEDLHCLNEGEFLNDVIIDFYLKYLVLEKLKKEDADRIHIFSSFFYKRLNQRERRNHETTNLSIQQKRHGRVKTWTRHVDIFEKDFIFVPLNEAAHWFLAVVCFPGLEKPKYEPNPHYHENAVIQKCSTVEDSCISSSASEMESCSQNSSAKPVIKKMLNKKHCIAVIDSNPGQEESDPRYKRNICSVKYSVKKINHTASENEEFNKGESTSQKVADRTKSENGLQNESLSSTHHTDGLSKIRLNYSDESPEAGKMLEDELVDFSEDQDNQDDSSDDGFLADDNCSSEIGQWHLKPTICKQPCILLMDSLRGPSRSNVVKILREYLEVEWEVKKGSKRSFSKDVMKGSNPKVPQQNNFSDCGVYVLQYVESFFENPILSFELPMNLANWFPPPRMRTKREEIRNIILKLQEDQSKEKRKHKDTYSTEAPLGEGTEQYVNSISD
In kind it is functional.

For assay [7], the target named is T3, Caspase-3 (Homo sapiens, UniProt P42574).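 Also: Dose-response selectivity test against caspase-3 for candidate inhibitors of sentrin-specific proteases (SENPs).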
T3 sequence (P42574 whole entry): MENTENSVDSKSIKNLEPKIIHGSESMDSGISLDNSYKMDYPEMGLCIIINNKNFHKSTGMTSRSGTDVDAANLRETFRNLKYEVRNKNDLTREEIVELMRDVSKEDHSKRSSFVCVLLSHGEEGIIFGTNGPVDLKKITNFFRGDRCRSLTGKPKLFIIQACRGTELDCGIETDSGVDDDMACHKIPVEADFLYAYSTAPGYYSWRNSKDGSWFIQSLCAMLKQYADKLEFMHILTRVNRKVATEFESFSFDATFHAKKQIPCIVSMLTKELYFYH
Format: functional.

The target in assay [8] is T4, Sentrin-specific protease 8 (Homo sapiens, UniProt Q96LD8).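 Also: luminescence read-out of SENP8 inhibition, dose-response confirmation following an ultra-high-throughput screen.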
T4 sequence (Q96LD8 whole entry): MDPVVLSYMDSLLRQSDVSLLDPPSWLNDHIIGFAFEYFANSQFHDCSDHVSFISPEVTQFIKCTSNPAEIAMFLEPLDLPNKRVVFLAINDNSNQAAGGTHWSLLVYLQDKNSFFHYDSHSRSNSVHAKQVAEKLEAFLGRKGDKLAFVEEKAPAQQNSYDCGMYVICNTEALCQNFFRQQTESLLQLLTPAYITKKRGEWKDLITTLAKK
Format: functional.

Assay [9] addresses T5, Oxysterols receptor LXR-beta (Homo sapiens, UniProt P55055).
T5 sequence (P55055 whole entry): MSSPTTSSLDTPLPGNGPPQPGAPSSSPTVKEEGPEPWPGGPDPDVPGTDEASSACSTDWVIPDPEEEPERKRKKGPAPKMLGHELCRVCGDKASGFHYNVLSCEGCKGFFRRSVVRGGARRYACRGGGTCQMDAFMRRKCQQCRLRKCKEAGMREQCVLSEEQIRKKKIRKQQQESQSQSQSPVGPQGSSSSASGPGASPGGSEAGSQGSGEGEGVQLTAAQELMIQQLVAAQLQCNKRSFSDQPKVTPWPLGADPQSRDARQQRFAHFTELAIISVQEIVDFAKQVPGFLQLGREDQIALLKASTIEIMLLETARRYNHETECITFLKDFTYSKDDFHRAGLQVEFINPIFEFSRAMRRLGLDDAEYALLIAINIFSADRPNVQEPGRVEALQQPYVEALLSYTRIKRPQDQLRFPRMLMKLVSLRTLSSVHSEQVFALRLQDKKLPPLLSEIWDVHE
In kind it is functional, cell-based.

Assay [10] has as its target T6, Sentrin-specific protease 7 (Homo sapiens, UniProt Q9BQF6).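 Also: Luminescence-based dose-response confirmation of ultra-high-throughput screening hits, measuring inhibition of SENP7.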
T6 sequence (Q9BQF6 whole entry): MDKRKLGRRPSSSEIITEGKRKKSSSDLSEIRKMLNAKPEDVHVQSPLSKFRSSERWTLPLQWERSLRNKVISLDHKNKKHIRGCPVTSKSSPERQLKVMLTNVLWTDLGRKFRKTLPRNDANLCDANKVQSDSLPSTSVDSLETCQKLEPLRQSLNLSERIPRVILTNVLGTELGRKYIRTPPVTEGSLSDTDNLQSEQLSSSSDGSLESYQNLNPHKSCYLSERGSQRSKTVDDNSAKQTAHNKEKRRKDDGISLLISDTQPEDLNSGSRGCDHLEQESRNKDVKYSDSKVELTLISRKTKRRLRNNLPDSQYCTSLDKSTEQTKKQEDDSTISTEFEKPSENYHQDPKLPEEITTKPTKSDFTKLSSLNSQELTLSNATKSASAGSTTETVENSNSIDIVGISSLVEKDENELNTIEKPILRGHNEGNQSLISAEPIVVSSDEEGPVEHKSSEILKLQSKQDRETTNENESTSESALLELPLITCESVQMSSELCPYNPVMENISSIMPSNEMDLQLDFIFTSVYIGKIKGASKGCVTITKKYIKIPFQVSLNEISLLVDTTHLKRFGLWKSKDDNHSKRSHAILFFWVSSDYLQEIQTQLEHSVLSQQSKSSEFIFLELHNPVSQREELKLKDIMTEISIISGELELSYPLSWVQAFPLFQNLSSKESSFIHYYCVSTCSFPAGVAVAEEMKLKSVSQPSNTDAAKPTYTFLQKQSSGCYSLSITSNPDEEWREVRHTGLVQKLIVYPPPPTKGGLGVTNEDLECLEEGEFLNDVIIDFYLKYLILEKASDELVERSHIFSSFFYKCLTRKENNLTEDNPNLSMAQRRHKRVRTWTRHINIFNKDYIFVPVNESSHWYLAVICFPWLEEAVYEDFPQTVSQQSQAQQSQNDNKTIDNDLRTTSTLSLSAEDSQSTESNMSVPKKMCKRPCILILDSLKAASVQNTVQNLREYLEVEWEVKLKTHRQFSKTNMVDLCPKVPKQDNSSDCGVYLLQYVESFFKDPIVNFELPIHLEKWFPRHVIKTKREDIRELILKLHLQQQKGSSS
In kind it is functional.

Assay [11] concerns the target T7, Endoribonuclease toxin MazF (Escherichia coli K-12, UniProt P0AE70).
T7 sequence (P0AE70 whole entry): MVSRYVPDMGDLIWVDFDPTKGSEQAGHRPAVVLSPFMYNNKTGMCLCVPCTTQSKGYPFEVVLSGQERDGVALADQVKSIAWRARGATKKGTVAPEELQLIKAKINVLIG
The assay is described as follows: fluorescent RNA oligo signal without MazF, dose response, counter-screen for MazEF activator project, biochemical, fluorescence, single-stranded RNase substrate (AID 588502). Format: functional.

Assay [12] has as its target T7, Endoribonuclease toxin MazF. The assay is described as follows: MazF toxin RNase activators, dose response, biochemical, fluorescence, single-stranded RNA substrate, uHTS hits (AID 588481). In kind it is functional.
The subject of assay [13] is INS1. Briefly: beta cell apoptosis inhibitors, cytokine rescue, dose response, luminescence, retest (AID 449756).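 Also: cell death triggered by IL-1 beta plus TNF-alpha plus IFN-gamma mixture; protective hits raise ATP signal compared with cytokine alone wells.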 Format: functional, cell-based. The following applies: Rattus norvegicus.
In assay [14] the target is FAD-linked sulfhydryl oxidase ALR (Homo sapiens, UniProt P55789). The assay is described as follows: inhibitors of human ALR sulfhydryl oxidase, dose response, biochemical, H2O2 detection, luminescence, cherry-pick (AID 493248).
FAD-linked sulfhydryl oxidase ALR, sequence (P55789 whole entry): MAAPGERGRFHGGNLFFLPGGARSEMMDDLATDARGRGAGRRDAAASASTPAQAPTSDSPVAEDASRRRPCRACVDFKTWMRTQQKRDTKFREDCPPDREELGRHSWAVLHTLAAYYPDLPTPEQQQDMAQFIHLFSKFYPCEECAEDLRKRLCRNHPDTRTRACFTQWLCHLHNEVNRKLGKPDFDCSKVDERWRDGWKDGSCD
The target of assay [15] is Nonstructural protein 1 (Influenza A virus, UniProt Q194T2). In kind it is functional, Influenza A virus (A/California/07/2009(H1N1)).
Nonstructural protein 1, sequence (Q194T2 whole entry): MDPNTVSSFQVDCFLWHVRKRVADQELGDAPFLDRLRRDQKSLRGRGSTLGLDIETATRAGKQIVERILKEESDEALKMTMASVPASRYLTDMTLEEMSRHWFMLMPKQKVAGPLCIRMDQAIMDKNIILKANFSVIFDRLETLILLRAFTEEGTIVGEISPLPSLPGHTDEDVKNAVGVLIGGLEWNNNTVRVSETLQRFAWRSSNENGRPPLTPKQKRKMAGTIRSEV

As usually defined, the EC50 is the concentration giving half of the maximal effect. In general, IC50 refers to the concentration needed to halve the response being measured. The term AC50 denotes the midpoint of the concentration-response curve, whichever way the signal moves.

Activity calls are given as the source filed them.

`O=[N+]([O-])c1nn(-c2ccc(Cl)cc2)[n+]([O-])c1NCc1cccnc1`: the EC50 in assay [1] is > 160 µM (inactive); in assay [2], > 180 µM (inactive); in assay [3], > 150 µM (inactive); in assay [5] it was 1.11 µM (active). The CC50 in assay [4] is > 40 µM (active).

For the compound `CCOc1ccc2nc(NC(=O)Nc3cccs3)sc2c1`, the IC50 is 19.2 µM (active) in assay [6], 29.9 µM (active) in assay [7], 24.1 µM (active) in assay [8] and 8.66 µM (active) in assay [10]. In addition, the EC50 in assay [9] was > 67.5 µM (inactive).

As to `CSC1=N/C(=C\c2ccc(C)s2)C(=O)S1`, the EC50 is 72 µM (inactive) in assay [11] and 89.7 µM (inactive) in [12].

Take `COc1cccc(C2=CC(c3ccc(N(C)C)cc3)n3nnnc3N2)c1` (stereo unspecified): the EC50 in [11] and in assay [12] was > 99 µM (inactive) in each case.

Regarding `Oc1ccc(N=Nc2nccs2)c(O)c1`, the values for the AC50 in assay [13] and in [14] were 2.78 µM (active) and 4.55 µM (active), respectively. Also, the EC50 in assay [1] was 16 µM (inconclusive); in assay [2] it was > 180 µM (inactive); in assay [3], 21.8 µM (active); in assay [5] it was 1.19 µM (active). The IC50 in [15] is 11.4 µM (active).
